Patent US10598672B2, “Methods and compositions for diagnosing and treating loss and/or distortion of taste or smell” (Cyrano Therapeutics, Inc., priority 2014, dated 2020)

System: hyposmic patients
Assay: Subjective responses in smell, flavor and taste function (1-100 scale) after oral theophylline
Format: in vivo, human
From the text: The term “subjective improvement” as used herein and its grammatical equivalents can refer to measurements of improvement in perception for all external odors based upon a scale of 1-100 with 100 indicating complete recovery of normal smell function with responses from 1-100 scaled appropriately. […] Subjective improvement in taste function can also be measured with changes in taste for salt, sweet, sour and bitter tastants measured on the same 1-100 scale with 100 indicating return to normal for each of the four tastants considered and responses <100 scaled consistently less.
Thirty-one of the hyposmic patients were treated with oral theophylline with a dose range of 200-800 mg taken over a period of 2-10 months. These patients were 18 men, aged 12-78 y, 62+5 y, with six with PIHH, 10 with allergic rhinitis, one with congenital smell loss and one post anesthesia and 13 women, aged 12-67 y, 42±6 y, with four with PIHH, one with allergic rhinitis and eight with congenital smell loss. Improvement in smell function consisted of improvement in both subjective responses to oral theophylline and in olfactometry. Subjective improvement in smell function consisted of measurements of improvement in perception for all external odors based upon a scale of 1-100 with 100 indicating complete recovery of normal smell function with responses from 1-100 scaled appropriately. […] Subjective improvement in taste function was also measured with changes in taste for salt, sweet, sour and bitter tastants measured on the same 1-100 scale with 100 indicating return to normal for each of the four tastants considered and responses <100 scaled consistently less. Improvement by olfactometry was indicated by decreased DT or RT (increased sensitivity), increased ME (increased sensitivity) and changes in H consistent with decreased distortions.

[1] = 31 patients, oral theophylline, listed as ORAL THEOPHYLLINE
[2] = 31 patients, oral theophylline, listed as oral theophylline
[3] = oral theophylline, scale 1-100, listed as ORAL THEOPHYLLINE
[4] = oral theophylline, scale 1-100, listed as oral theophylline

In the case of `Cn1c(=O)c2[nH]cnc2n(C)c1=O` [theophylline], the “FLAVOR FUNCTION IMPROVED, number of patients” value (31 patients, oral theophylline) is reported as 19, the “FLAVOR FUNCTION NOT IMPROVED, % of patients studied” value (31 patients, oral theophylline) is reported as “[39] %” and the “FLAVOR FUNCTION NOT IMPROVED, number of patients” value (31 patients, oral theophylline) is reported as 12. For the same molecule, the “SMELL FUNCTION NOT IMPROVED, % of patients studied” value (31 patients, oral theophylline) was “[39] %”, the “SMELL FUNCTION NOT IMPROVED, number of patients” value (31 patients, oral theophylline) was 12 and the “TASTE FUNCTION IMPROVED, number of patients” value (31 patients, oral theophylline) was 20. The “TASTE FUNCTION NOT IMPROVED, % of patients studied” value (31 patients, oral theophylline) was “[36] %”, the “TASTE FUNCTION NOT IMPROVED, number of patients” value (31 patients, oral theophylline) was 11 and the “SMELL FUNCTION IMPROVED, number of patients” value (31 patients, oral theophylline 200-800 mg for 2-10 months) was 19. For the same molecule, the “SMELL FUNCTION IMPROVED, % of patients studied” value (31 patients, oral theophylline 200-800 mg for 2-10 months, listed as ORAL THEOPHYLLINE) was “[61] %”, the “SMELL FUNCTION IMPROVED, % of patients studied” value (31 patients, oral theophylline 200-800 mg for 2-10 months, listed as oral theophylline) was 61% and the “FLAVOR FUNCTION IMPROVED, % of patients studied” value [1] was “[61] %”. For the same molecule, the “TASTE FUNCTION IMPROVED, % of patients studied” value [1] was “[64]^d %”, the “FLAVOR FUNCTION IMPROVED, % of patients studied” value [2] was 61% and the “TASTE FUNCTION IMPROVED, % of patients studied” value [2] was 64%. For the same molecule, the “SMELL FUNCTION IMPROVED, RESPONSE RANGE” value (improved patients (19), scale 1-100) was 2-100%, the “SMELL FUNCTION IMPROVED, RESPONSE Mean ± SEM” value (improved patients (19), scale 1-100, listed as ORAL THEOPHYLLINE) was 34 ± 6% and the “SMELL FUNCTION IMPROVED, RESPONSE Mean ± SEM” value (improved patients (19), scale 1-100, listed as oral theophylline) was 34±6%. For the same molecule, the “FLAVOR FUNCTION NOT IMPROVED, RESPONSE Mean ± SEM” value (oral theophylline) was 0, the “FLAVOR FUNCTION NOT IMPROVED, RESPONSE RANGE” value (oral theophylline) was 0% and the “SMELL FUNCTION IMPROVED MEN, number of patients” value (oral theophylline) was 11. The “SMELL FUNCTION NOT IMPROVED, RESPONSE Mean ± SEM” value (oral theophylline) was 0, the “SMELL FUNCTION NOT IMPROVED, RESPONSE RANGE” value (oral theophylline) was 0% and the “TASTE FUNCTION NOT IMPROVED, RESPONSE Mean ± SEM” value (oral theophylline) was 0. For the same molecule, the “TASTE FUNCTION NOT IMPROVED, RESPONSE RANGE” value (oral theophylline) was 0%, the “FLAVOR FUNCTION IMPROVED, RESPONSE Mean ± SEM” value (oral theophylline, scale 1-100) was 43 ± 8 and the “FLAVOR FUNCTION IMPROVED, RESPONSE RANGE” value (oral theophylline, scale 1-100) was 1-100%. The “SMELL FUNCTION IMPROVED MEN, RESPONSE RANGE” value (oral theophylline, scale 1-100) was 3-95%, the “SMELL FUNCTION IMPROVED WOMEN, RESPONSE RANGE” value (oral theophylline, scale 1-100) was 2-100% and the “TASTE FUNCTION IMPROVED, RESPONSE Mean ± SEM” value (oral theophylline, scale 1-100) was 47 ± 8. For the same molecule, the “TASTE FUNCTION IMPROVED, RESPONSE RANGE” value (oral theophylline, scale 1-100) was 3-100%, the “SMELL FUNCTION IMPROVED MEN, RESPONSE Mean ± SEM” value [3] was 27 ± 9% and the “SMELL FUNCTION IMPROVED WOMEN, RESPONSE Mean ± SEM” value [3] was 43 ± 17%. The “SMELL FUNCTION IMPROVED MEN, RESPONSE Mean ± SEM” value [4] was 27±9%, the “SMELL FUNCTION IMPROVED WOMEN, RESPONSE Mean ± SEM” value [4] was 43±17% and the “SMELL FUNCTION IMPROVED WOMEN, number of patients” value (oral theophylline, listed as ORAL THEOPHYLLINE) was 8. For the same molecule, the “SMELL FUNCTION IMPROVED WOMEN, number of patients” value (oral theophylline, listed as oral theophylline) was “eight”.
